For the assay, the system named is Mycobacterium tuberculosis strain EH4.0 expressing green-fluorescent protein (GFP). The experiment in a line: microbe, parasite or virus in culture. The format is cell-based. The note with it: 168 h, read-out: pIC50 (converted).
On to `CCc1nc2nc(N)c(F)cn2c1C(=O)NCc1ccc(N2CCN(S(=O)(=O)C(F)(F)F)C=N2)c(F)c1` [Compound 170], for which the IC50 is 316 nM.

As to `CCc1nc2ccc(Cl)cn2c1C(=O)NCc1ccc(N2CCN(S(=O)(=O)C(F)(F)F)C=N2)nc1` [Compound 171], the IC50 is 25.1 nM.

For `Cc1cc(F)c2ncc(C(=O)NCc3ccc(N4CCN(S(=O)(=O)C(F)(F)F)C=N4)c(F)c3)n2c1` [Compound 173], the IC50 was 50.1 nM.

For the molecule `Cc1ccc2nc(C(F)(F)F)c(C(=O)NCc3ccc(N4CCN(S(=O)(=O)C(F)(F)F)C=N4)c(F)c3)n2c1` [Compound 175], the IC50 is 1.58 nM.

Turning to `Cc1ccc2nc(C(F)(F)F)c(C(=O)NCc3cnc(N4CCN(S(=O)(=O)C(F)(F)F)C=N4)c(F)c3)n2c1` [Compound 176], the IC50 was 15.8 nM.

On to `CCc1nc2nc(C)c(F)cn2c1C(=O)NCc1ccc(N2CCN(S(=O)(=O)C(F)(F)F)C=N2)c(F)c1` [Compound 177], for which the IC50 is 7.94 nM.

Take `Cc1cc(F)c2ncc(C(=O)NCc3cnc(N4CCN(S(=O)(=O)C(F)(F)F)C=N4)c(F)c3)n2c1` [Compound 178]: the IC50 was 200 nM.

Regarding `CCc1nc2nc(OC)c(F)cn2c1C(=O)NCc1ccc(N2CCN(S(=O)(=O)C(F)(F)F)C=N2)c(F)c1` [Compound 179], the IC50 was 126 nM.

Regarding `CCc1nc2nc3c(cn2c1C(=O)NCc1ccc(N2CCN(S(=O)(=O)C(F)(F)F)C(OC)=N2)c(F)c1)CCOC3` [Compound 180], the IC50 was 3.98 nM.

On to `CCc1nc2c(F)cc(C)cn2c1C(=O)NCc1cnc(N2CCN(S(=O)(=O)C(F)(F)F)C=N2)c(F)c1` [Compound 181], for which the IC50 is 6.31 nM.

In the case of `O=C(NCc1cnc(N2CCN(S(=O)(=O)C(F)(F)F)C=N2)c(F)c1)c1c(C(F)(F)F)nc2c(F)cccn12` [Compound 182], the IC50 was 31.6 nM.

Take `CCc1nc2c(C)cc(C)cn2c1C(=O)NCc1cnc(N2CCN(S(=O)(=O)C(F)(F)F)C=N2)c(F)c1` [Compound 183]: the IC50 is 200 nM.

For the molecule `Cc1cc(F)c2nc(C(F)(F)F)c(C(=O)NCc3cnc(N4CCN(S(=O)(=O)C(F)(F)F)C=N4)c(F)c3)n2c1` [Compound 184], the IC50 is 31.6 nM.

As for `CCc1nc2cc(C)c(C)cn2c1C(=O)NCc1cnc(N2CCN(S(=O)(=O)C(F)(F)F)C=N2)c(F)c1` [Compound 185], the IC50 was 46.8 nM.

As for `O=C(NCc1ccc(N2CCN(S(=O)(=O)C(F)(F)F)C=N2)c(F)c1)c1c(C(F)(F)F)nc2c(F)cccn12` [Compound 186], the IC50 was 3.63 nM.

Consider `CCc1nc2c(F)cc(C)cn2c1C(=O)NCc1cnc(N2CCNC=N2)c(F)c1` [Compound 187], for which the IC50 is no less than 501 nM.

Regarding `CCc1nc2nc(OCc3ccccc3)c(F)cn2c1C(=O)NCc1ccc(N2CCN(S(=O)(=O)C(F)(F)F)C=N2)c(F)c1` [Compound 189], the IC50 was no less than 501 nM.

In the case of `CCc1nc2cc3c(cn2c1C(=O)NCc1ccc(N2CCN(S(=O)(=O)C(F)(F)F)C=N2)c(F)c1)OCCN3C` [Compound 191], the IC50 is 38 nM.

On to `O=C(NCc1ccc(N2CCNC=N2)c(F)c1)c1c(C(F)(F)F)nc2ccccn12` [Compound 192], for which the IC50 was greater than 500 nM.

Take `CCc1nc2ncc(C)cn2c1C(=O)NCc1ccc(N2CCN(S(=O)(=O)C(F)(F)F)C(OC)=N2)c(F)c1` [Compound 193]: the IC50 was 0.891 nM.

With `CCc1nc2c(F)cc(C)cn2c1C(=O)NCc1ccc(N2CCNC=N2)c(F)c1` [Compound 198], the IC50 is 93.3 nM.

As for `CCc1nc2nc(C)c(Cl)cn2c1C(=O)NCc1ccc(N2CCNC=N2)c(F)c1` [Compound 199], the IC50 is greater than 500 nM.

Regarding `CCc1nc2ncc(C)cn2c1C(=O)NCc1ccc(N2CCN(S(=O)(=O)C(F)(F)F)C(OC)=N2)cc1` [Compound 200], the IC50 was 5.5 nM.

For `CCc1nc2ncc(C)cn2c1C(=O)NCc1cnc(N2CCN(S(=O)(=O)C(F)(F)F)C=N2)c(F)c1` [Compound 201], the IC50 is 12 nM.

For the molecule `CCc1nc2cc(F)c(Cl)cn2c1C(=O)NCc1ccc(N2CCNC=N2)c(F)c1` [Compound 202], the IC50 is 389 nM.

For the molecule `CCc1nc2ccc(F)cn2c1C(=O)NCc1ccc(N2CCN(S(=O)(=O)C(F)(F)F)C(OC)=N2)c(F)c1` [Compound 204], the IC50 is 4.47 nM.

With `CCc1nc2nc3c(cn2c1C(=O)NCc1ccc(N2CCN(S(=O)(=O)C(F)(F)F)C=N2)c(F)c1)OCCN3C` [Compound 205], the IC50 is 66.1 nM.

`COC1=NN(c2ccc(CNC(=O)c3c(C(F)F)nc4ccc(Cl)cn34)cc2F)CCN1S(=O)(=O)C(F)(F)F` [Compound 206]: the IC50 is 2.45 nM.

In the case of `CCc1nc2n(ccc3ncnn32)c1C(=O)NCc1ccc(N2CCN(S(=O)(=O)C(F)(F)F)C=N2)c(F)c1` [Compound 207], the IC50 was 186 nM.

Consider `CCc1nc2ccc(Cl)cn2c1C(=O)NCc1cnc(N2CCN(S(=O)(=O)C(F)(F)F)C=N2)c(C)c1` [Compound 208], for which the IC50 was 69.2 nM.

As for `CCc1nc2cc(Cl)c(C)cn2c1C(=O)NCc1ccc(N2CCN(S(=O)(=O)C(F)(F)F)C(OC)=N2)c(F)c1` [Compound 209], the IC50 was 11.2 nM.

For `CCc1nc2c(F)cc(Cl)cn2c1C(=O)NCc1ccc(N2CCN(S(=O)(=O)C(F)(F)F)C(OC)=N2)c(F)c1` [Compound 210], the IC50 is 3.02 nM.

Regarding `CCc1nc2nc(C)c(C)cn2c1C(=O)NCc1ccc(N2CCN(S(=O)(=O)C(F)(F)F)C(OC)=N2)c(F)c1` [Compound 211], the IC50 was 2.29 nM.

As for `CCc1nc2c(N)cc(C)cn2c1C(=O)NCc1ccc(N2CCN(S(=O)(=O)C(F)(F)F)C=N2)c(F)c1` [Compound 212], the IC50 is 25.7 nM.

Turning to `CCc1nc2ccc(Cl)cn2c1C(=O)NCc1ccc(N2CCN(S(=O)(=O)C(F)(F)F)C(C)=N2)c(F)c1` [Compound 213], the IC50 is 3.47 nM.

Take `CC1=NN(c2ccc(CNC(=O)c3c(C(F)(F)F)nc4ccccn34)cc2)CCN1S(=O)(=O)C(F)(F)F` [Compound 214]: the IC50 is 13.5 nM.

In the case of `CCc1nc2ccc(C)cn2c1C(=O)NCc1ccc(N2CCN(S(=O)(=O)C(F)(F)F)C(C)=N2)cc1` [Compound 215], the IC50 was 0.912 nM.

Consider `CCc1nc2nc3c(cn2c1C(=O)NCc1ccc(N2CCN(S(=O)(=O)C(F)(F)F)C(C)=N2)cc1)CCOC3` [Compound 217], for which the IC50 is 14.1 nM.

Source of the values: patent US20220340564A1, “ANTIBACTERIAL COMPOUNDS” (Janssen Sciences Ireland Unlimited Company, priority 2019, published 2022).
